Biological target: T1, IRAK4 (Homo sapiens, UniProt Q9NWZ3)
T1 sequence (Q9NWZ3 1-460): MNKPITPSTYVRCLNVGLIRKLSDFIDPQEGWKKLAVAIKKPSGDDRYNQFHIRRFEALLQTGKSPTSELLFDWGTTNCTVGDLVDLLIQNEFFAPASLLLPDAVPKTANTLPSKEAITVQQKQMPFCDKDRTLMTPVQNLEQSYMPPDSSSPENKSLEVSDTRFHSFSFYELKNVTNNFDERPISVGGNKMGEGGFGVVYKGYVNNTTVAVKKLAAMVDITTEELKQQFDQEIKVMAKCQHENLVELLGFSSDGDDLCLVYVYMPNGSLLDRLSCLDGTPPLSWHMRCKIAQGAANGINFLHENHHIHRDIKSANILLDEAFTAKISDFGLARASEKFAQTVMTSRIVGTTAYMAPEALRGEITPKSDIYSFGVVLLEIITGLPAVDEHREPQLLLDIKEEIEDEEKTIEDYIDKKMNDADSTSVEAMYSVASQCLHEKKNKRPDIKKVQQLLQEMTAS
Experiment: OCI-LY-10 degradation assay (western blot, % IRAK4 degraded after 4 hours)
Assay type: cell-based
Set-up: endogenous in cells; host or cells: OCI-LY10
Details: OCI-LY10 cells; for OCI-LY10 % IRAK4 Degradation: IRAK4 degraded after 4 hours, western blot; for OCI-LY10 % IRAK4 Degradation (0.01 uM) / OCI-LY10 % IRAK4 Degradation (0.1 uM) / OCI-LY10 % IRAK4 Degradation (1 uM): 4 hours; for OCI-LY10 % IRAK4 Degradation (0.01 uM): 0.01 uM compound; for OCI-LY10 % IRAK4 Degradation (0.1 uM): 0.1 uM compound; for OCI-LY10 % IRAK4 Degradation (1 uM): 1 uM compound
Summary of the method: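 IRAK4 loss after 4 h at 37° C was scored A (>50%), B (>20-50%) or C (<20%) from infrared western blots of RIPA lysates, 20-25 μg protein per lane. Compound was applied at 0.003-10 μM final to OCI-LY10 cells cultured in RPMI-1640 with 20% FBS and 55 μM 2-ME.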

| OCI-LY10 % IRAK4 Degradation | OCI-LY10 % IRAK4 Degradation (0.01 uM) | OCI-LY10 % IRAK4 Degradation (0.1 uM) | OCI-LY10 % IRAK4 Degradation (1 uM) | SMILES |
| --- | --- | --- | --- | --- |
| C (<20% degradation) |  |  |  | N#Cc1cnc2c(cnn2-c2cc(NC3CC3)c(C(=O)NCC(F)COc3cccc4c3C(=O)N(C3CCC(=O)NC3=O)C4=O)cn2)c1 (centres unmarked) [I-173, 6-(5-Cyanopyrazolo[3,4-b]pyridin-1-yl)-4-(cyclopropylamino)-N-[3-[2-(2,6-dioxo-3-piperidyl)-1,3-dioxo-isoindolin-4-yl]oxy-2-fluoro-propyl]pyridine-3-carboxamide] |
| C (<20% degradation) |  |  |  | O=C1CCC(N2C(=O)c3cccc(OCC(F)CNC(=O)c4cnc(Nc5ccc6cnccc6n5)cc4NC4CC4)c3C2=O)C(=O)N1 (centres unmarked) [I-174, 4-(Cyclopropylamino)-N-[3-[2-(2,6-dioxo-3-piperidyl)-1,3-dioxo-isoindolin-4-yl]oxy-2-fluoro-propyl]-6-(1,6-naphthyridin-2-ylamino)pyridine-3-carboxamide] |
| C (<20% degradation) |  |  |  | N#Cc1cnc2c(cnn2-c2cc(NC3CC3)c(-c3cn(CCOCCOCCOCCNc4cccc5c4C(=O)N(C4CCC(=O)NC4=O)C5=O)nn3)cn2)c1 (centres unmarked) [I-175, 1-[4-(cyclopropylamino)-5-[1-[2-[2-[2-[2-[[2-(2,6-dioxo-3-piperidyl)-1,3-dioxo-isoindolin-4-yl]amino]ethoxy]ethoxy]ethoxy]ethyl]triazol-4-yl]-2-pyridyl]pyrazolo[3,4-b]pyridine-5-carbonitrile] |
| C (<20% degradation) |  |  |  | N#Cc1cnc2c(cnn2-c2cc(NC3CC3)c(-c3cn(CCOCCOCCOCCOCCOCCNc4cccc5c4C(=O)N(C4CCC(=O)NC4=O)C5=O)nn3)cn2)c1 (centres unmarked) [I-176, 1-[4-(Cyclopropylamino)-5-[1-[2-[2-[2-[2-[2-[2-[[2-(2,6-dioxo-3-piperidyl)-1,3-dioxo-isoindolin-4-yl]amino]ethoxy]ethoxy]ethoxy]ethoxy]ethoxy]ethyl]triazol-4-yl]-2-pyridyl]pyrazolo[3,4-b]pyridine-5-carbonitrile] |
| C (<20% degradation) |  |  |  | NC(=O)c1nn(-c2ccc(C(=O)NCC#CC#CCNc3cccc4c3C(=O)N(C3CCC(=O)NC3=O)C4=O)cc2)cc1NC(=O)c1coc(-c2ccnc(NCC(F)(F)F)c2)n1 (centres unmarked) [I-177, N-[3-carbamoyl-1-[4-[6-[[2-(2,6-dioxo-3-piperidyl)-1,3-dioxo-isoindolin-4-yl]amino]hexa-2,4-diynylcarbamoyl]phenyl]pyrazol-4-yl]-2-[2-(2,2,2-trifluoroethylamino)-4-pyridyl]oxazole-4-carboxamide] |
| C (<20% degradation) |  |  |  | NC(=O)c1nn(-c2ccc(C(=O)NCC#CC#CCCNc3cccc4c3C(=O)N(C3CCC(=O)NC3=O)C4=O)cc2)cc1NC(=O)c1coc(-c2ccnc(NCC(F)(F)F)c2)n1 (centres unmarked) [I-178, N-[3-carbamoyl-1-[4-[7-[[2-(2,6-dioxo-3-piperidyl)-1,3-dioxo-isoindolin-4-yl]amino]hepta-2,4-diynylcarbamoyl]phenyl]pyrazol-4-yl]-2-[2-(2,2,2-trifluoroethylamino)-4-pyridyl]oxazole-4-carboxamide] |
| C (<20% degradation) |  |  |  | NC(=O)[C@@H](O)C[C@H]1CCc2sc3ncnc(O[C@H]4CC[C@H](N5CCN(CCOCCNc6cccc7c6C(=O)N(C6CCC(=O)NC6=O)C7=O)CC5)CC4)c3c21 (stereo partly drawn) [I-184, T(2R)-3-[(8R)-1-[4-[4-[2-[2-[[2-(2,6-dioxo-3-piperidyl)-1,3-dioxo-isoindolin-4-yl]amino]V ethoxy]ethyl]piperazin-1-yl]cyclohexoxy]-7,8-dihydro-6H-cyclopenta[4,5]thieno[1,2-c]pyrimidin-8-yl]-2-hydroxy-propanamide] |
| B (>20-50% degradation) |  |  |  | O=C1CCC(N2C(=O)c3ccc(CCCOCCOCCNCc4ccc(-n5cc(NC(=O)c6coc(-c7ccnc(NCC8CC8)c7)n6)c(C(F)(F)F)n5)cc4)cc3C2=O)C(=O)N1 (centres unmarked) [I-187, 2-[2-(Cyclopropylmethylamino)-4-pyridyl]-N-[1-[4-[[2-[2-[3-[2-(2,6-dioxo-3-piperidyl)-1,3-dioxo-isoindolin-5-yl]propoxy]ethoxy]ethylamino]methyl]phenyl]-3-(trifluoromethyl)pyrazol-4-yl]oxazole-4-carboxamide] |
| C (<20% degradation) |  |  |  | Cc1ncsc1-c1ccc(CNC(=O)[C@@H]2C[C@@H](O)CN2C(=O)[C@@H](NCCCCCOCCOCCCCCNC(=O)c2ccc(-n3cc(NC(=O)c4coc(-c5ccnc(NCC(F)(F)F)c5)n4)c(C(N)=O)n3)cc2)C(C)(C)C)cc1 [I-188, N-(3-carbamoyl-1-(4-((5-(2-((5-(((S)-1-((2S,4R)-4-hydroxy-2-((4-(4-methylthiazol-5-yl)benzyl)carbamoyl)pyrrolidin-1-yl)-3,3-dimethyl-1-oxobutan-2-yl)amino)pentyl)oxy)ethoxy)pentyl)carbamoyl)phenyl)-1H-pyrazol-4-yl)-2-(2-((2,2,2-trifluoroethyl)amino)pyridin-4-yl)oxazole-4-carboxamide] |
| C (<20% degradation) |  |  |  | N#Cc1ccc2ncc(-c3cccc(NC4CCN(CCCCCOCCOCCCCCNC(=O)COc5cccc6c5C(=O)N(C5CCC(=O)NC5=O)C6=O)C4)n3)n2c1 (centres unmarked) [I-204] |
| C (<20% degradation) |  |  |  | Cc1ncsc1-c1ccc(CNC(=O)[C@@H]2C[C@@H](O)CN2C(=O)[C@@H](NC(=O)COCCCCCOCCCCCNC(=O)CN2CCC(Nc3cccc(-c4cnc5ccc(C#N)cn45)n3)C2)C(C)(C)C)cc1 (some centres unmarked) [I-205] |
| C (<20% degradation) |  |  |  | Cc1ncsc1-c1ccc(CNC(=O)[C@@H]2C[C@@H](O)CN2C(=O)[C@@H](NC(=O)COCCOCCOCCOCCOCCNC(=O)C(F)CNC(=O)c2cnc(Nc3ccc4cnccc4n3)cc2NC2CC2)C(C)(C)C)cc1 (some centres unmarked) [I-207] |
| C (<20% degradation) |  |  |  | N#Cc1ccc2ncc(-c3cccc(NC4CCN(CCOCCOCCOCCOCCOCCNc5cccc6c5C(=O)N(C5CCC(=O)NC5=O)C6=O)C4)n3)n2c1 (centres unmarked) [I-208] |
| C (<20% degradation) |  |  |  | Cc1ncsc1-c1ccc(CNC(=O)[C@@H]2C[C@@H](O)CN2C(=O)[C@@H](NC(=O)COCCOCCOCCOCCOCCN2CCC(Nc3cccc(-c4cnc5ccc(C#N)cn45)n3)C2)C(C)(C)C)cc1 (some centres unmarked) [I-209] |
|  | B (>20-50% degradation) | B (>20-50% degradation) | B (>20-50% degradation) | O=C1CCC(N2C(=O)c3cccc(NCCOCCNC(=O)c4ccc(-n5cc(NC(=O)c6coc(-c7ccnc(NCC8CC8)c7)n6)c(C(F)F)n5)cc4)c3C2=O)C(=O)N1 (centres unmarked) [I-211] |
|  | B (>20-50% degradation) | A (>50% degradation) | A (>50% degradation) | O=C1CCC(N2C(=O)c3cccc(NCCOCCOCCOCCOCCNC(=O)c4ccc(-n5cc(NC(=O)c6coc(-c7ccnc(NCC8CC8)c7)n6)c(C(F)F)n5)cc4)c3C2=O)C(=O)N1 (centres unmarked) [I-212] |
|  | A (>50% degradation) | A (>50% degradation) | A (>50% degradation) | NCc1nn(-c2ccc(C(=O)NCCOCCOCCNc3cccc4c3C(=O)N(C3CCC(=O)NC3=O)C4=O)cc2)cc1NC(=O)c1coc(-c2ccnc(NCC(F)(F)F)c2)n1 (centres unmarked) [I-215] |
|  | B (>20-50% degradation) | B (>20-50% degradation) | B (>20-50% degradation) | O=C1CCC(N2C(=O)c3cccc(NCCOCCOCCNC(=O)c4ccc(-n5cc(NC(=O)c6coc(-c7ccnc(NCC8CC8)c7)n6)c(C(F)(F)F)n5)cc4)c3C2=O)C(=O)N1 (centres unmarked) [I-220] |
|  | B (>20-50% degradation) | B (>20-50% degradation) | A (>50% degradation) | O=C1CCC(N2C(=O)c3cccc(CCCNCCCCCNC(=O)c4ccc(-n5cc(NC(=O)c6coc(-c7ccnc(NCC8CC8)c7)n6)c(C(F)(F)F)n5)cc4)c3C2=O)C(=O)N1 (centres unmarked) [I-221] |
|  | A (>50% degradation) | A (>50% degradation) | A (>50% degradation) | O=C1CCC(N2C(=O)c3cccc(NCCNCCOCCNC(=O)c4ccc(-n5cc(NC(=O)c6coc(-c7ccnc(NCC8CC8)c7)n6)c(C(F)(F)F)n5)cc4)c3C2=O)C(=O)N1 (centres unmarked) [I-222] |
|  | B (>20-50% degradation) | A (>50% degradation) | A (>50% degradation) | CN(CCOCCOCCCc1cccc2c1C(=O)N(C1CCC(=O)NC1=O)C2=O)C(=O)c1ccc(-n2cc(NC(=O)c3coc(-c4ccncc4)n3)c(C(N)=O)n2)cc1 (centres unmarked) [I-226] |
|  | C (<20% degradation) | C (<20% degradation) | C (<20% degradation) | CN(CCOCCCc1cccc2c1C(=O)N(C1CCC(=O)NC1=O)C2=O)C(=O)c1ccc(-n2cc(NC(=O)c3coc(-c4ccnc(NCC5CC5)c4)n3)c(C(N)=O)n2)cc1 (centres unmarked) [I-229] |
|  | C (<20% degradation) | C (<20% degradation) | C (<20% degradation) | CN(CCCCCCCCCc1cccc2c1C(=O)N(C1CCC(=O)NC1=O)C2=O)C(=O)c1ccc(-n2cc(NC(=O)c3coc(-c4ccnc(NCC5CC5)c4)n3)c(C(N)=O)n2)cc1 (centres unmarked) [I-230] |

From US10874743B2, “IRAK degraders and uses thereof” (Kymera Therapeutics, Inc., priority 2017, dated 2020)
